Results taken from US20040091937A1, “Use of fluorine NMR for high throughput screening” (priority 2002, published 2004).
Where “and” joins values, the source holds several entries; their conditions need not be identical. Equal values may be shown once. Where a name gives a salt, the structure may show the parent alone. Each block holds one compound with its values, some of them ahead of it.

How the values were obtained:
human serum albumin [1] = target: T1, human serum albumin (Homo sapiens, UniProt P02768); assay: 19F NMR spin-echo competition binding screening against HSA with spy molecule (3) and control molecule (2)
T1 sequence (P02768 25-609): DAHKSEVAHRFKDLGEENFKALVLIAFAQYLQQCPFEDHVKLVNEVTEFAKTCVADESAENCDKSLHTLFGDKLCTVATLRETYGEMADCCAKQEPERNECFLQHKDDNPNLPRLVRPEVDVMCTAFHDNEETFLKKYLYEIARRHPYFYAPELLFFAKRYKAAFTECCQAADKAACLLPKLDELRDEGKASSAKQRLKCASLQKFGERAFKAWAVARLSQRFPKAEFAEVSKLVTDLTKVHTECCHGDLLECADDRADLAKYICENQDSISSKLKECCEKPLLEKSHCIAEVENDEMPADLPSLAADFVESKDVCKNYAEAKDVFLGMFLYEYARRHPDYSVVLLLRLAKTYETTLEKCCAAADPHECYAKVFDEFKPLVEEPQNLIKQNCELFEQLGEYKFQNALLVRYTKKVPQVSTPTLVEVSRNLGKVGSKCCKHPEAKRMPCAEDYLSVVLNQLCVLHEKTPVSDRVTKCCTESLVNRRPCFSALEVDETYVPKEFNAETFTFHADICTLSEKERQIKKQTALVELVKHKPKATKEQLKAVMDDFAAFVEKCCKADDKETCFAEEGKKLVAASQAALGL
Method: (§1) D2O was added to the solution (8% final concentration) for the lock signal.
A dual coil {^19F}-{^1H} probe was used with the inner coil tuned to ^19F and the outer coil tuned to ^1H frequency. […] These signals are broad and therefore are not visible in the spectra of the reference and control molecule recorded with a spin-echo scheme. All the spectra were recorded with a weak Waltz-16 proton decoupling applied during the acquisition period. Typically 4-8 dummy scans were recorded for temperature equilibration. Carr-Purcell-Meibom-Gill schemes of different length and long 2τ interval were used before the acquisition period. Chemical shifts were referenced to trifluoroacetic acid.
These techniques also provide the number of binding sites (n) for the reference molecule a parameter that is very important for the competition binding experiments.
For screening, a total spin-echo period (2nτ) was selected for which the signal of the reference molecule is approaching zero.

human serum albumin [2] = target: T1, human serum albumin; assay: Isothermal titration calorimetry with HSA; type: binding; parameters: purchased Sigma A-3782
Method: Isothermal titration calorimetry experiments were performed using an OMEGA titrating microcalorimeter from Microcal, Inc. (Northampton, Mass.). The titrating microcalorimeter consisted of a sample and reference cell held in an adiabatic enclosure. The reference cell was filled with PBS. […] Analyte at 0.8 mM in the same buffer was held in a 250 μL syringe. Thirty injections (8 μL each and 12 seconds/injection) of analyte were made by a computer controlled stepper motor into the sample cell held at 25° C. The syringe stir rate was 400 rpm. Heat adsorbed or released with each injection was measured by a thermoelectric device connected to a Microcal nanovolt preamplifier. Titration isotherms for the binding interactions were comprised of the differential heat flow for each injection. Heat of dilution obtained by injecting analyte into PBS was negligible. Binding isotherms were fit to a single binding site model (T. Wiseman et al., Anal. Biochem., 179, 131-137 (1989)) using an iterative nonlinear least-squares algorithm included with the instrument.

PAK4 = target: T2, PAK4 (Homo sapiens, UniProt O96013); assay: 19F NMR binding and competition binding screening and deconvolution against p21-activated kinase; settings: 15 μM TFA, 1.5 μM protein
T2 construct: GST (cleaved yes); made in house; host or cells: E. coli
T2 sequence (O96013 321-572 limits assumed, species assumed): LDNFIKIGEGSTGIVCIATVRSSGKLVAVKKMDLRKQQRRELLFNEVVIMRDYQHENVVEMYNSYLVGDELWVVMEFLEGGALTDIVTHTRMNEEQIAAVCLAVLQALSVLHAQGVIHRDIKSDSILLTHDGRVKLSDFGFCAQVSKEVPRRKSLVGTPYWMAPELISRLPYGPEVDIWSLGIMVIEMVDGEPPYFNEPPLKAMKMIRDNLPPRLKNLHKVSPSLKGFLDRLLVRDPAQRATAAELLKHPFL
Method: as §1
The signal of the non-interacting molecule represents an internal reference that can be used for calibrating with a single experiment the changes in the signal of the spy molecule. […] It should be noted that some compounds in the screening may contain traces of TFA.

Compound: Cc1ccc2[nH]cc(CC(N)C(=O)O)c2c1 (centres unmarked) [5-CH3 D,L Trp]
effect on the 19F signal of the spy molecule (3) (displacement from HSA) (human serum albumin [1]; 600 nM HSA, 50 μM (3), 25 μM (2), 50 μM 5-CH3 D,L Trp and sucrose, 25 μM (4)): do not alter the spectrum of the spy molecule

Compound: FC(F)(F)c1nnc(N2CCNCC2)s1 [(2), 1-[5-(trifluoromethyl)1,3,4-thiadiazol-2-yl]piperazine]
evidence of binding to HSA by ITC (human serum albumin [2]; 8 μL injections of 800 μM into 30 μM HSA): did not find any evidence of binding to HSA

Kd (human serum albumin [2]; HSA in PBS + 2% DMSO, 25° C., single binding site model, read-out: ITC derived KD): 41 ± 3.3 µM
Kd (human serum albumin [1]; KD^app, apparent KD of (3), 50 μM, with 25 μM (4) and 0.6 μM HSA): 327 µM and 300 µM
Compound: O=C(O)c1cccc(F)c1O [(3), 2-hydroxy 3-fluorobenzoic acid]

Compound: O=C(O)C(F)(F)F [trifluoroacetic acid (TFA), trifluoroacetic acid]
interaction with the protein (19F spectra in absence and presence of protein) (PAK4): non-interacting
